According to ChEMBL document CHEMBL5512632, “Unlocking the potential of 1,4-naphthoquinones: A comprehensive review of their anticancer properties” (Eur J Med Chem, 2024):
Values belong to the compound of their own block, whether it stands above or below them.

Experiments:
K562 = assay: Antiproliferative activity against human K562 cells assessed as inhibition of cell growth; format: functional, cell-based
THP-1 = assay: Antiproliferative activity against human THP-1 cells assessed as inhibition of cell growth; format: functional, cell-based
MV4-11 = assay: Cytotoxicity against human MV4-11 cells; format: functional, cell-based
NCI-H460 = assay: Antiproliferative activity against human NCI-H460 cells assessed as inhibition of cell growth incubated for 24 hrs by MTT assay; format: functional, cell-based; conditions: NCI-H460, 24 h
MDA-MB-231 = assay: Antiproliferative activity against human MDA-MB-231 cells assessed as inhibition of cell growth incubated for 24 hrs by MTT assay; format: functional, cell-based; conditions: MDA-MB-231, 24 h
A2780 = assay: Antiproliferative activity against human A2780 cells assessed as inhibition of cell growth incubated for 24 hrs by MTT assay; format: functional, cell-based; conditions: A2780, 24 h
HCT-15 [1] = assay: Antiproliferative activity against human HCT-15 cells assessed as inhibition of cell growth incubated for 24 hrs by MTT assay; format: functional, cell-based; conditions: HCT-15, 24 h
MCF7 [2] = assay: Antiproliferative activity against human MCF7 cells assessed as inhibition of cell growth incubated for 24 hrs by MTT assay; format: functional, cell-based; conditions: MCF7, 24 h
LNCaP = assay: Antiproliferative activity against human LNCaP cells assessed as inhibition of cell growth incubated for 72 hrs by MTT assay; format: functional, cell-based
PC-3 = assay: Antiproliferative activity against human PC-3 cells assessed as inhibition of cell growth incubated for 72 hrs by MTT assay; format: functional, cell-based; conditions: PC-3, 72 h
SGC-7901 = assay: Antiproliferative activity against human SGC-7901 cells assessed as inhibition of cell growth incubated for 48 hrs by MTT assay; format: functional, cell-based; conditions: SGC-7901, 48 h
HepG2 = assay: Antiproliferative activity against human HepG2 cells assessed as inhibition of cell growth incubated for 48 hrs by MTT assay; format: functional, cell-based; conditions: HepG2, 48 h
NCI-H187 = assay: Antiproliferative activity against human NCI-H187 cells; format: functional, cell-based
MCF7 [3] = assay: Antiproliferative activity against human MCF7 cells; format: functional, cell-based
HCT-15 [4] = assay: Cytotoxicity against human HCT-15 cells incubated for 48 hrs by MTT assay; format: functional, cell-based; conditions: HCT-15, 48 h
HCT-116 = assay: Cytotoxicity against human HCT-116 cells incubated for 48 hrs by MTT assay; format: functional, cell-based; conditions: HCT-116, 48 h
AGS [5] = assay: Antiproliferative activity against human AGS cells assessed as inhibition of cell growth incubated for 3 days by MTT assay; format: functional, cell-based; conditions: 72 h
HeLa = assay: Cytotoxicity against human HeLa cells assessed as inhibition of cell growth incubated for 48 hrs by MTT assay; format: functional, cell-based
SK-MEL-5 = assay: Antiproliferative activity against human SK-MEL-5 cells assessed as inhibition of cell growth incubated for 96 hrs by SRB assay; format: functional, cell-based; conditions: SK-MEL-5, 96 h
T-24 = assay: Cytotoxicity against human T24 cells assessed as reduction in cell growth incubated for 48 hrs by MTT assay; format: functional, cell-based; conditions: T-24, 48 h
DU-145 = assay: Cytotoxicity against human DU-145 cells assessed as reduction in cell growth incubated for 48 hrs by MTT assay; format: functional, cell-based; conditions: DU-145, 48 h
MCF7 [6] = assay: Cytotoxicity against human MCF7 cells assessed as reduction in cell growth incubated for 48 hrs by MTT assay; format: functional, cell-based; conditions: MCF7, 48 h
HT-29 = assay: Antiproliferative activity against human HT-29 cells assessed as inhibition of cell growth incubated for 48 hrs by MTT assay; format: functional, cell-based; conditions: HT-29, 48 h
[7] = Antiproliferative activity against human SNU-484 cells assessed as inhibition of cell growth incubated for 24 hrs by MTT reagent based microplate reader assay; format: functional; conditions: SNU-484, 24 h
NCI-N87 = assay: Antiproliferative activity against human NCI-N87 cells assessed as inhibition of cell growth incubated for 24 hrs by MTT reagent based microplate reader assay; format: functional; conditions: NCI-N87, 24 h
MKN-45 = assay: Antiproliferative activity against human MKN-45 cells assessed as inhibition of cell growth incubated for 24 hrs by MTT reagent based microplate reader assay; format: functional; conditions: MKN-45, 24 h
AGS [8] = assay: Antiproliferative activity against human AGS cells assessed as inhibition of cell growth incubated for 24 hrs by MTT reagent based microplate reader assay; format: functional
[9] = Antiproliferative activity against human SNU-216 cells assessed as inhibition of cell growth incubated for 24 hrs by MTT reagent based microplate reader assay; format: functional; conditions: SNU-216, 24 h
[10] = Antiproliferative activity against human YCC-6 cells assessed as inhibition of cell growth incubated for 24 hrs by MTT reagent based microplate reader assay; format: functional; conditions: YCC-6, 24 h
[11] = Antiproliferative activity against human YCC-1 cells assessed as inhibition of cell growth incubated for 24 hrs by MTT reagent based microplate reader assay; format: functional; conditions: YCC-1, 24 h
MKN-28 = assay: Antiproliferative activity against human MKN-28 cells assessed as inhibition of cell growth incubated for 24 hrs by MTT reagent based microplate reader assay; format: functional; conditions: MKN-28, 24 h
[12] = Antiproliferative activity against human YCC-16 cells assessed as inhibition of cell growth incubated for 24 hrs by MTT reagent based microplate reader assay; format: functional; conditions: YCC-16, 24 h

Structure (SMILES): CCNC1=CC(=O)c2ccccc2C1=O
IC50 (K562): 78 µM
IC50 (THP-1): 23 µM

Structure (SMILES): O=C(Cc1ccc(C(=O)NO)cc1)NC1=CC(=O)c2ccccc2C1=O
EC50 (MV4-11): 0.367 µM

Structure (SMILES): O=C1C=C(SCCO)C(=O)c2ccccc21
IC50 (NCI-H460): 4.24 µM
IC50 (MDA-MB-231): 16 µM
IC50 (A2780): 3.69 µM

Structure (SMILES): O=C(NNC1=CC(=O)c2ccccc2C1=O)c1ccncc1
IC50 (HCT-15 [1]): 28.2 µM
IC50 (MCF7 [2]): 20.9 µM

Structure (SMILES): O=C(/C=C/C=C/c1ccc2c(c1)OCO2)OC1=CC(=O)c2ccccc2C1=O
IC50 (NCI-H187): 2.24 µM
IC50 (MCF7 [3]): 3.84 µM

Structure (SMILES): C=CC(C)(C)C(SC(=O)c1cc(OC)c(OC)c(OC)c1)c1cc(OC)c2c(c1OC)/C(=N\O)C=C/C2=N\O (configuration not stated)
IC50 (HCT-15 [4]): 3.67 µM
IC50 (HCT-116): 4.95 µM

Structure (SMILES): CC(C)(C)SC1=C(Cl)C(=O)c2ccccc2C1=O
IC50 (HeLa): 10.2 µM

Structure (SMILES): C=CC/N=c1\sc2c(n1NC(=O)c1cc3ccc1CCc1ccc(cc1)CC3)C(=O)c1ccccc1C2=O
IC50 (SK-MEL-5): 0.81 µM

Structure (SMILES): COc1cc(NC2=C(C(=O)c3ccccc3)C(=O)c3ccccc3C2=O)cc(OC)c1OC
IC50 (T-24): 11.6 µM
IC50 (DU-145): 8.12 µM
IC50 (MCF7 [6]): 7.53 µM

Structure (SMILES): COc1ccc(SC2=CC(=O)c3c(OC)ccc(OC)c3C2=O)cc1
IC50 [7]: 0.64 µM
IC50 (NCI-N87): 0.73 µM
IC50 (MKN-45): 0.63 µM
IC50 (AGS [8]): 0.32 µM
IC50 [9]: 1.22 µM
IC50 [10]: 0.42 µM
IC50 [11]: 0.71 µM
IC50 (MKN-28): 0.56 µM
IC50 [12]: 1.35 µM

The next lines start with the values.

IC50 (LNCaP): 0.1 µM
IC50 (PC-3): 1.26 µM
Structure (SMILES): O=C1c2ccccc2C(=O)c2oc(-c3ccccc3Cl)nc21

IC50 (SGC-7901): 4.39 µM
IC50 (HepG2): 5.91 µM
Structure (SMILES): COc1ccc(C2C3=C(Nc4nc(SC)nc(N)c42)C(=O)c2ccccc2C3=O)cc1Br (configuration not stated)

IC50 (AGS [5]): 3.3 µM
Structure (SMILES): Cn1c(=O)c2c3c(c(-c4cccs4)nc2n(C)c1=O)C(=O)c1ccccc1C3=O

IC50 (HT-29): 1.73 µM
Structure (SMILES): O=C(c1cccs1)c1cc2c(s1)C(=O)c1ccccc1C2=O
